Entries after “also recorded” stand apart in the source; their conditions may differ.
Assays:
Assay type in all cases: in vivo, mouse
[1] = test system: As1; test: Immunohistochemistry staining of distal colon sections for As1; conditions: after colitis induction, vs control mice with colitis; FIG. 3E, 4A
Method: Four micrometer paraffin embedded tissue sections were deparaffinized and rehydrated. Endogenous peroxidase was blocked with three percent H2O2 in methanol. Sections undergoing for ALS staining were incubated in cold acetone at −20° C. for 7 minutes. For F4/80 and MAC-2 staining, the present inventors performed antigen retrieval in Tris-EDTA pH 9 and 10 mM citric acid pH 6, for 10 minutes, respectively, using a low boiling program in the microwave to break protein cross-links and unmask antigens. After pre-incubation with 20% normal horse serum and 0.2% Triton X-100 for 1 hour at RT (root temperature), sections were incubated with the primary antibodies as follow; ASL (1:100, Abcam, ab97370, CA, USA); F4/80 (1:50, Serotec, Kidllington, UK); Mac-2 (1:400, Cedarlane, N.C., USA). For fluorescent double-staining of ASL and CD11c the mouse anti ASL (1:50 Santa Cruz Biotechnology, Inc. sc-166787, TX, USA) and rabbit anti CD11c (1:50, ab52632) were used. All antibodies were diluted in PBS containing 2% normal horse serum and 0.2% Triton. Sections were incubated overnight at RT followed by 48 hours at 4° C. Sections were washed three times in PBS and incubated with secondary biotinylated IgG at RT (room temperature) for 1.5 hour, washed three times in PBS and incubated with avidin-biotin Complex (Elite-ABC kit, Vector Lab, CA, USA) at RT for additional 90 minutes followed by DAB (Sigma) reaction. For the fluorescent staining the CY2 conjugated anti mouse and CY3 conjugated streptavidin (1:100 and 1:200 respectively, Jackson ImmunoResearch, West Grove, Pa.) were used.

[2] = test system: C57BL/6J.OlaaHsd mice; test: DSS-induced colitis, treatment with arginine, citrulline, NaNO2, fisetin or citrulline plus fisetin; conditions: day 12
[3] = test system: C57BL/6J.OlaaHsd mice; test: as above; conditions: for weight loss: 1% DSS 6 days; for Histology score for colitis: FIG. 3D; for clinical improvement in colitis severity: evaluated by change in weight, histological score and colon length, vs control
Method: Colitis was induced in Vav1^Cre:As1^f/f mice and CD11c^Cre:As1^f/f with 1.5% DSS and with 0.8% DSS in the Villin^Cre:As1^f/f (wt/vol), (Dextran Sodium Sulfate, MP Biomedicals; molecular weight 36,000-50,000 Da). The powder was dissolved in the drinking water for 6 days, followed by 5 days of supplementing regular water^20. Each group consisted of eight to ten, 8-10 weeks old, male mice. Experiments were repeated at least three times. “f/f”—flox/flox.
Colonoscopy was performed on days 7 and 11 of the experiment to monitor for severity of colitis. For the procedure, a high resolution mouse video endoscopic system was used, which consists of a miniature endoscope (scope 1.9 mm outer diameter), a xenon light source, a triple chip camera, and an air pump to achieve regulated inflation of the mouse bowel (Karl Storz, Tuttlingen, Germany). Mice were anesthetized by the administration of 4-5% of isoflurane in 100% oxygen at a rate of 0.2-0.5 L/min or by the administration of 100 mg/kg Ketamine/10 mg/kg Xylazine mixture IP, after which, the endoscope was introduced via the anus and the colon was carefully insufflated with an air pump before analysis of the colonic mucosa. The endoscopic procedure was viewed on a color monitor and digitally recorded on tape. Colitis was scored according to the Murine endoscopic index of colitis severity (MEICS), considering differences in the thickness of the bowel wall, changes in blood vessel integrity, mucosal surface, stool consistency or the presence of fibrin, scored each between 0 and 3. The cumulative score ranged from 0 (no signs of inflammation) to 15 (signs of severe inflammation)^21.
Mice were treated with 1% (wt/vol) DSS for 6 days, followed by administration of either arginine 1% (wt/vol) solution (Sigma-Aldrich, St. Louis, Mo., catalogue number A8094) in drinking water, citrulline 1% (wt/vol) (L-citrulline, Chem-Impex International), NaNO2 100 mg (Sigma-Aldrich, St. Louis, Mo., catalogue number S2252), or water as control for additional 6 days.
Fisetin was given by intraperitoneal (i.p.) injection (1 mg/animal) in 30 μL of DMSO twice weekly. The control group was injected with 30 μL of DMSO twice weekly. Each group consisted of ten, 8-weeks old, male mice. Experiments were repeated three times.
Histopathology. On the day of sacrifice, colons were removed and their length was measured. Colon was fixed in 2.5% PFA solution overnight at 4° C., then embedded in paraffin, sectioned and stained with H&E. Tissues were examined in a blinded manner by a pathologist and scored on a 0-4 scale based on the parameters of inflammation severity^20.

[4] = test system: enterocytes; test: FACS analysis of colon epithelial cells (enterocytes) after colitis induction
Method: Colon segment was flushed with cold PBS, longitudinally cut open and rinsed to remove residual luminal contents. Tissue was cut into 3- to 5-mm pieces and incubated in HBSS medium containing EDTA 0.5 M and Hepes 10 mM at 37° C. for 20 minutes, shaken at 180 rpm, to separate epithelial fraction. Supernatant was centrifuged at 4° C. at 500 g for 10 minutes. Recovered tissue was digested in HBSS medium with 2% fetal bovine serum (FBS), 0.05% collagenase II and 0.05% DNase I (Sigma) for 40 minutes. at 37° C., shaken at 180 rpm. LP cells were filtered through 65 μm mesh and centrifuged at 4° C. at 500 g for 10 minutes. The present inventors prepared single cell suspensions from mouse colon by enzymatic digestion and analyzed by polychromatic flow cytometry. Samples were stained with conjugated antibodies or matching isotype controls according to manufacturer's instructions. Data were acquired on an LSRII (BD Biosciences) or FACSCalibur instrument (Becton-Dickinson) with CellQuest software, with a MacsQuant instrument (Miltenyi, Bergisch Gladbach, Germany), and analyzed using BD FACSDiva 6 or FlowJo software (version 7.6.5, or version vX.0.7 Tree Star Inc) or MacsQuant. Colon cells were stained for 30 min at 4° C. in flow cytometry buffer (PBS, 10% FCS and 0.02% azide). For antigens that require intracellular staining (As1, iNOS and S-nitrosocystein), cell surface staining was followed by cell fixation and permeabilization with the Cytofix/Cytoperm kit (BD Biosciences) according to the manufacturer's instructions. For staining, the present inventors used a lineage cocktail of antibodies anti-CD45-APC, Anti-CD64-PE, Anti-CD11c-PB, Anti-326-APC cy7, Anti CD31-PE cy7 (all from BioLegend). After staining for cell surface antigens, intracellular NO was detected by incubation of cells for 15 min at 37° C. with 10 μM DAF-FM diacetate followed by extensive washing, according to the manufacturer's instructions (Molecular Probes). Staining without addition of the DAF-FM probe was considered to be the baseline for gating the positive population. As1 was detected using anti-As1-ALEXA FLUOR® 488 (BD Biosciences), iNOS using anti-iNOS followed by anti-rat 488 (Jackson ImmunoResearch), and nitrosylation using anti-S-nitrosocystein (from abcam) followed by anti-mouse 488 (Jackson ImmunoResearch).

[5] = test system: intestine; test: Tunnel staining of intestine (apoptosis); conditions: colitis mice, citrulline vs control; FIGS. 3F-H
Method: Tunnel staining was performed by using ApopTag kit detection according to manufacturer's instructions (Millipore, CA, USA). Stained sections were examined and photographed by a fluorescence or bright field microscope (Eclipse Ni-U; Nikon, Tokyo, Japan) equipped with Plan Fluor objectives (10; 20×; 40×) connected to a monochrome camera (DS-Qi1, Nikon).

[6] = arginine, citrulline or NaNO2 vs water control, FIG. 3B
[7] = then arginine 1%, citrulline 1% or NaNO2 100 mg in drinking water 6 days vs water control, FIG. 3A
[8] = arginine, citrulline or NaNO2 vs water control, FIG. 3C
[9] = arginine, citrulline or NaNO2 vs water control

O=N[O-].[Na+] [NaNO2]
As1 expression in distal colon sections (intestine, enterocytes) [1]: reduced expression | endoscopic colitis score [2, 6]: Significant improvement | weight loss [3, 7]: significant weight loss reduction in the control group compared to the three treatments | colon length [3, 8]: significant reduction in colon length in the control group as compared to the treated colons | Histology score for colitis [3, 9]: significantly lower | clinical improvement in colitis severity ([3]; FIG. 3A-D): significant clinical improvement

NC(=O)NCCCC(N)C(=O)O (stereo not drawn) [citrulline, 2-Amino-5-(carbamoylamino)pentanoic acid]
induction of NO synthesis in enterocytes, citrulline compared with arginine ([4]; FIGS. 3I-J): more effective than arginine | NO levels in enterocytes (colon epithelial cells) ([4]; after colitis induction, treated vs control, FIGS. 3F-J, 4F-I): increased generation of NO | As1 expression in distal colon sections (intestine, enterocytes) [1]: upregulated; also recorded: more pronounce expression | endoscopic colitis score, citrulline in comparison to arginine ([2]; FIG. 3B): more beneficial treatment | endoscopic colitis score [2, 6]: Significant improvement | endoscopic colitis score ([2]; fisetin, citrulline or both vs DMSO control, FIG. 4C): significant improvement | apoptosis in the intestine [5]: decreased apoptosis; also recorded: increased apoptosis in the control intestine as compare to colon taken from mice treated with citrulline | weight loss [3, 7]: significant weight loss reduction in the control group compared to the three treatments | weight loss ([3]; then fisetin 1 mg IP twice, citrulline 1% in drinking water or both vs DMSO control, FIG. 4B): significant weight loss is documented in the control group compared to the treated mice | effectiveness in alleviating colitis severity compared among arginine, citrulline and NO donor ([3]; FIG. 3A-D): the most effective | colon length [3, 8]: significant reduction in colon length in the control group as compared to the treated colons | Histology score for colitis [3, 9]: significantly lower | clinical improvement in colitis severity ([3]; FIG. 3A-D): significant clinical improvement | colon length ([3]; fisetin, citrulline or both vs DMSO control, FIG. 4D): significant longer | histological score ([3]; fisetin, citrulline or both vs DMSO control, FIG. 4E): significant reduction

N=C(N)NCCC[C@H](N)C(=O)O [arginine]
As1 expression in distal colon sections (intestine, enterocytes) [1]: upregulated | endoscopic colitis score [2, 6]: Significant improvement | weight loss [3, 7]: significant weight loss reduction in the control group compared to the three treatments | colon length [3, 8]: significant reduction in colon length in the control group as compared to the treated colons | Histology score for colitis [3, 9]: significantly lower | clinical improvement in colitis severity ([3]; FIG. 3A-D): significant clinical improvement
